Results reported in PubChem BioAssay (NCI).
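The concentration for 50% growth inhibition is given as GI50. TGI is the concentration that stops growth completely.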

How the values were obtained:
Assay in all cases: NCI anticancer screen, dose series, 384-well format
[1] = test system: 786-0 renal
[2] = test system: A498 renal
[3] = test system: A549 NSCLC
[4] = test system: ACHN renal
[5] = test system: BT-549 breast
[6] = test system: CAKI-1 renal
[7] = test system: CCRF-CEM leukemia
[8] = test system: COLO 205 colon
[9] = test system: DU-145 prostate
[10] = test system: EKVX NSCLC
[11] = test system: HCC-2998 colon
[12] = test system: HCT-116 colon
[13] = test system: HCT-15 colon
[14] = test system: HL-60(TB) leukemia
[15] = test system: HOP-62 NSCLC
[16] = test system: HOP-92 NSCLC
[17] = test system: HS 578T breast
[18] = test system: HT29 colon
[19] = test system: IGROV1 ovarian
[20] = test system: K-562 leukemia
[21] = test system: KM12 colon
[22] = test system: LOX IMVI melanoma
[23] = test system: M14 melanoma
[24] = test system: MALME-3M melanoma
[25] = test system: MCF7 breast
[26] = test system: MDA-MB-231 breast
[27] = test system: MDA-MB-435 melanoma
[28] = test system: MDA-MB-468 breast
[29] = test system: MOLT-4 leukemia
[30] = test system: NCI-H226 lung
[31] = test system: NCI-H23 lung
[32] = test system: NCI-H322M lung
[33] = test system: NCI-H460 NSCLC
[34] = test system: NCI-H522 lung
[35] = test system: NCI/ADR-RES ovarian
[36] = test system: OVCAR-3 ovarian
[37] = test system: OVCAR-4 ovarian
[38] = test system: OVCAR-8 ovarian
[39] = test system: PC-3 prostate
[40] = test system: RPMI-8226 leukemia
[41] = test system: RXF 393 renal
[42] = test system: SF-268 CNS
[43] = test system: SF-295 CNS
[44] = test system: SF-539 CNS
[45] = test system: SK-MEL-28 melanoma
[46] = test system: SK-MEL-5 melanoma
[47] = test system: SK-OV-3 ovarian
[48] = test system: SN12C renal
[49] = test system: SNB-19 CNS
[50] = test system: SNB-75 CNS
[51] = test system: SR leukemia
[52] = test system: SW-620 colon
[53] = test system: T-47D breast
[54] = test system: TK-10 renal
[55] = test system: U251 glioblastoma
[56] = test system: UACC-257 melanoma
[57] = test system: UACC-62 melanoma
[58] = test system: UO-31 renal

Structure (SMILES): O=C(O)CSc1cc(NS(=O)(=O)c2ccc(Br)cc2)c2ccccc2c1O
- GI50 [1]: 6.17 µM
- TGI [1]: 18.3 µM
- GI50 [2]: 16.9 µM
- TGI [2]: 30.6 µM
- GI50 [3]: 11.6 µM
- TGI [3]: 23.8 µM
- GI50 [4]: 4.15 µM
- TGI [4]: 13.6 µM
- GI50 [5]: 2.93 µM
- TGI [5]: 7.45 µM
- GI50 [6]: 10.9 µM
- TGI [6]: 22.8 µM
- GI50 [7]: 2.02 µM
- TGI [7]: 3.45 µM
- GI50 [8]: 3.12 µM
- TGI [8]: 9.58 µM
- GI50 [9]: 2.37 µM
- TGI [9]: 5.24 µM
- GI50 [10]: 1.92 µM
- TGI [10]: 3.63 µM
- GI50 [11]: 11.7 µM
- TGI [11]: 23.9 µM
- GI50 [12]: 2.19 µM
- TGI [12]: 4.15 µM
- GI50 [13]: 10.6 µM
- TGI [13]: 22.4 µM
- GI50 [14]: 1.82 µM
- TGI [14]: 3.22 µM
- GI50 [15]: 3.02 µM
- TGI [15]: 8.45 µM
- GI50 [16]: 2.24 µM
- TGI [16]: 4.57 µM
- GI50 [17]: 1.63 µM
- TGI [17]: 3.04 µM
- GI50 [18]: 3.94 µM
- TGI [18]: 11.9 µM
- GI50 [19]: 2.69 µM
- TGI [19]: 6.51 µM
- GI50 [20]: 1.39 µM
- TGI [20]: 2.71 µM
- GI50 [21]: 4.91 µM
- TGI [21]: 16.2 µM
- GI50 [22]: 1.79 µM
- TGI [22]: 3.26 µM
- GI50 [23]: 3.11 µM
- TGI [23]: 7.41 µM
- GI50 [24]: 1.95 µM
- TGI [24]: 3.38 µM
- GI50 [25]: 1.62 µM
- TGI [25]: 3.15 µM
- GI50 [26]: 1.89 µM
- TGI [26]: 3.72 µM
- GI50 [27]: 2 µM
- TGI [27]: 3.43 µM
- GI50 [28]: 1.39 µM
- TGI [28]: 2.7 µM
- GI50 [29]: 1.96 µM
- TGI [29]: 3.39 µM
- GI50 [30]: 6.7 µM
- TGI [30]: 18.5 µM
- GI50 [31]: 1.82 µM
- TGI [31]: 3.94 µM
- GI50 [32]: 16.2 µM
- TGI [32]: 29.7 µM
- GI50 [33]: 13.5 µM
- TGI [33]: 26.3 µM
- GI50 [34]: 7.47 µM
- TGI [34]: 20 µM
- GI50 [35]: 2.22 µM
- TGI [35]: 4.79 µM
- GI50 [36]: 0.404 µM
- TGI [36]: 1.69 µM
- GI50 [37]: 1.73 µM
- TGI [37]: 3.12 µM
- GI50 [38]: 1.92 µM
- TGI [38]: 3.97 µM
- GI50 [39]: 2.38 µM
- TGI [39]: 5.77 µM
- GI50 [40]: 1.63 µM
- TGI [40]: 3.37 µM
- GI50 [41]: 1.75 µM
- TGI [41]: 3.44 µM
- GI50 [42]: 2.4 µM
- TGI [42]: 6.02 µM
- GI50 [43]: 6.61 µM
- TGI [43]: 19 µM
- GI50 [44]: 2.2 µM
- TGI [44]: 3.72 µM
- GI50 [45]: 2.25 µM
- TGI [45]: 4.05 µM
- GI50 [46]: 1.98 µM
- TGI [46]: 3.52 µM
- GI50 [47]: 5.22 µM
- TGI [47]: 16.6 µM
- GI50 [48]: 2.03 µM
- TGI [48]: 3.64 µM
- GI50 [49]: 5.03 µM
- TGI [49]: 15.4 µM
- GI50 [50]: 2.19 µM
- TGI [50]: 4.5 µM
- GI50 [51]: 2.6 µM
- TGI [51]: 4.08 µM
- GI50 [52]: 2.42 µM
- TGI [52]: 6.09 µM
- GI50 [53]: 2.61 µM
- TGI [53]: 5.11 µM
- GI50 [54]: 14.2 µM
- TGI [54]: 27.2 µM
- GI50 [55]: 2.55 µM
- TGI [55]: 6.16 µM
- GI50 [56]: 1.65 µM
- TGI [56]: 3.03 µM
- GI50 [57]: 1.91 µM
- TGI [57]: 3.33 µM
- GI50 [58]: 2.05 µM
- TGI [58]: 3.91 µM
